Test results taken from ChEMBL document CHEMBL1157222, “Anxiolytic effect of natural galphimines from Galphimia glauca and their chemical derivatives” (2006).
The source made the active and inactive calls. The calls are words filed in the database; no cut-off is given here.

Key:
[1] = system: Mus musculus; experiment: Anxiolytic effect in ICR mouse assessed as increase in time spent on open arm at 15 mg/kg, ip administered 1 hr before by elevated plus-maze test; format: functional; conditions: route intraperitoneal
[2] = system: Mus musculus; experiment: Anxiolytic effect in ICR mouse assessed as increase in number of entries on open arm at 15 mg/kg, ip administered 1 hr before by elevated plus-maze test; format: functional; conditions: route intraperitoneal
[3] = system: Mus musculus; experiment: Anxiolytic effect in ICR mouse assessed as increase in time spent on open arm at 1.0 mg/kg, ip administered 1 hr before by elevated plus-maze test; format: functional, organism-based; design: dose 1 mg/kg
[4] = system: Mus musculus; experiment: Anxiolytic effect in ICR mouse assessed as increase in entries of open arm at 1.0 mg/kg, ip administered 1 hr before by elevated plus-maze test; format: functional, organism-based; design: dose 1 mg/kg
[5] = system: Mus musculus; experiment: Anxiolytic effect in ICR mouse assessed as […] in time spent on open arm at 2.0 mg/kg, ip administered 1 hr before by elevated plus-maze test; format: functional, organism-based; design: dose 2 mg/kg
[6] = system: Mus musculus; experiment: Anxiolytic effect in ICR mouse assessed as […] in entries of open arm at 2.0 mg/kg, ip administered 1 hr before by elevated plus-maze test; format: functional, organism-based; design: dose 2 mg/kg

Row | SMILES | Activity [1] | Activity [2] | further results
1 | COC(=O)[C@@]12CC[C@@]3(C)[C@@H]4C=CC(=O)OC[C@]4([C@@H](C)O)[C@@H](O)[C@@H](O)[C@@H]3[C@@]1(C)CC[C@@]1(C)CC=C(C)C[C@]12O [GALPHIMINE A] | 68.3% | 76.8% | –
2 | CN1C(=O)CN=C(c2ccccc2)c2cc(Cl)ccc21 | – | – | Activity [3]: Active; Activity [4]: Active
3 | COC(=O)CC[C@H]1[C@]2(C)CC[C@@]3(C(=O)OC)[C@]4(O)CC(C)=CC[C@]4(C)CC[C@]3(C)[C@H]2[C@H](O)[C@H](O)[C@]1(CO)[C@@H](C)O | 76.8% | 61.8% | –
4 | C=C(C)[C@@H]1[C@H]2OC(=O)[C@@H]1[C@]1(O)C[C@H]3OC34C(=O)O[C@H]2[C@@]41C.CC(C)(O)[C@@H]1[C@H]2OC(=O)[C@@H]1[C@]1(O)C[C@H]3OC34C(=O)O[C@H]2[C@@]41C (stereo not given in full) | – | – | Activity [5]: Active; Activity [6]: Active
5 | COC(=O)[C@@]12CC[C@@]3(C)[C@@H]4C=CC(=O)OC[C@]4([C@@H](C)O)C[C@@H](O)[C@@H]3[C@@]1(C)CC[C@@]1(C)CC=C(C)C[C@]12O [GALPHIMINE B] | 76.3% | 72.5% | –
